Test results as given in patent US10238631B2, “Sesquiterpene derivatives and their use in inflammation or cancer treatment” (Academia Sinica, priority 2014, dated 2019).
Where two headings read alike, the source gives them in different places.

Assays:
[1] = system: MDA-MB-231 (ER−, PR−, Her2−) human breast cancer cells; experiment: MTT cell viability assay, MDA-MB-231 cells; format: cell-based; conditions: for IC50: Homo sapiens
Procedure, shortened: (§1)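 Cells were seeded at 2×10^3 to 1×10^4 per well overnight, then exposed to compounds for 24 h to 72 h. Viability was read by MTT at OD570 as a percentage of the 0.5% DMSO vehicle control.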

[2] = system: MCF-7 (ER+, Her2−) human breast cancer cells; experiment: MTT cell viability assay, MCF-7 cells; format: cell-based
Procedure, shortened: as §1

[3] = system: M10 normal mammary epithelial cells; experiment: MTT cell viability assay, M10 normal cells; format: cell-based, human; conditions: 24 h; for IC50: Homo sapiens, Epithelial cell
Procedure, shortened: as §1

[4] = system: MeWo (No NRAS or BRAF mutation); experiment: MTT cell viability assay, MeWo melanoma; format: cell-based, human; conditions: 24 h
Procedure, shortened: (§2)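 Cells (2×10^3 to 1×10^4/well) seeded overnight, then exposed to compounds for 24 h to 72 h. Growth read by MTT colorimetry at OD570. Viability expressed as % of vehicle (0.5% DMSO) control.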

A2058 (BRAF mutation) = experiment: MTT cell viability assay, A2058 melanoma; format: cell-based, human
Procedure, shortened: as §2

A375 (BRAF mutation) = experiment: MTT cell viability assay, A375 melanoma; format: cell-based, human; conditions: MTT
Procedure, shortened: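 A375 cells were seeded at 2×10^3 to 1×10^4 per well overnight and then exposed to compounds for 24 h to 72 h. Viability was measured by MTT absorbance at OD570 relative to 0.5% DMSO vehicle (100%), and IC50 was derived from it. Combination with PLX4032 was scored by combination index.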

[5] = system: Melanocyte (Normal cells); experiment: MTT cell viability assay, normal melanocytes; format: cell-based, human; conditions: 24 h; for IC50: Homo sapiens, Melanocyte
Procedure, shortened: as §2

[6] = system: U-87MG brain cancer cell line; experiment: MTT cell viability assay, U-87MG; format: cell-based; conditions: Homo sapiens, 24 h
Method: (§3) Normal or cancer cells (2×10^3 to 1×10^4 cells/well) were seeded in 96-well plate for overnight and treated with different compounds for 24 h to 72 h. Cells growth were determined by MTT-based colorimetric assays according to. Viability of the test cells treated with vehicle (0.5% DMSO) only was defined as 100% viable. Survival of cells after treatment with DETDs was calculated using the following formula: viable cell number (%)=OD570 (treated cell culture)/OD570 (vehicle control)×100.
(§4) Based on toxicity results of DET and DETDs on different breast cancer and melanoma cell lines, we selected DETD-6, -32, -35 and -39, under the consideration of structure activity relationship for evaluating their suppression effect against other cancer types of cell line with indicated tumor origin in Table 5. […] The cells were treated with compounds for 24 h and then subjected to MTT assays.

U937 lymphoma line = experiment: MTT cell viability assay, U937; format: cell-based; conditions: Homo sapiens, U-937, 24 h
Method: as §3, §4

[7] = system: A498 kidney cancer cell line; experiment: MTT cell viability assay, A498; format: cell-based; conditions: Homo sapiens, 24 h
Method: as §3, §4

PC3 (Prostate) = experiment: MTT cell viability assay, PC3; format: cell-based; conditions: 24 h
Method: as §3, §4

[8] = system: KATO III stomach cancer cell line; experiment: MTT cell viability assay, KATO III; format: cell-based; conditions: Homo sapiens, 24 h
Method: as §3, §4

[9] = system: HCT-116 colon cancer cell line; experiment: MTT cell viability assay, HCT-116; format: cell-based; conditions: Homo sapiens, 24 h
Method: as §3, §4

MDA-MB-231 cell invasion = experiment: Boyden chamber (Matrigel) invasion assay; format: cell-based, human; conditions: 24 h
Method: To test the anti-migratory and anti-invasive effect of DET. DETD-35 and PTX. Boyden chambers assay was carried out. The lower well of the chamber (6.5 mm diameter, […]; Costar. Cambridge, Mass., USA) was added 10% fetal bovine serum (FBS) as a chemoattractant and filled with DMEM culture medium containing vehicle (DMSO, 0.05%), DET (2.5 and 4 μM). DETD-35 (1.25 and 2.5 μM), or PTX (2.5 and 4 μM). MDA-MB-231 cells were placed into the upper chamber (5×10^4 cells per insert) with the medium containing 0.1% FBS. After 24 h incubation at 37° C. in a 5% CO2 atmosphere, non-migrating cells were scraped from the upper surface of the membrane using a cotton swab, and the migrated cells remaining in the well were fixed and stained with DAPI solution (4,6-diamidino-2-phenylindole, 1 μg/ml). The migrating cells were counted in three fields at 20× original magnifications by inverted fluorescence microscopy. To test the anti-invasive effect of the compounds, 8-μm filters were pre-coating with Matrigel (30 μg per filter) and incubated at 37° C. for 2 h, then followed the protocol of migration assay descried about.

[10] = system: A375-R PLX4032-resistant melanoma tumor; experiment: A375-R melanoma xenograft model in NOD/SCID mice; format: in vivo, mouse; conditions: 20 mg/kg i.p. alone
Method: A375 and A375-R melanoma cells (3×10^6) were injected subcutaneously to the flanks of the six weeks old NOD/SCID mice. One week after the inoculation, the mice were randomized into treated groups (n=8 per group) and the treatments were started. Body weight and tumor volume of the mice were recorded every three days using formula a×b^2×0.5, where a and b represented the larger and smaller tumor diameters.
To study whether or not DETD-35 could overcome acquired resistance to BRAF inhibitor, we generated A375 cell line resistant to PLX4032 (designated A375-R) as described above. We then conducted A375-R orthotopic xenograft study.

[11] = system: DMBA/TPA-induced skin papillomas accelerated by PLX4032; conditions: DMBA/TPA + PLX4032 20 mg/kg, with DET or DETD-35 10 mg/kg i.p. twice per week
Method: Dorsal skin of six weeks old female FVB/N mice were shaved and treated with topical application of DMBA (25 μg in 100 μL acetone). One week after DMBA treatment, the same skin area were treated topically twice weekly with 12-O-tetradecanoylphorbol-13-acetate (TPA) (4 μg in 100 μL acetone). The area was regularly shaved and tumor formation was assessed twice weekly, and tumors were defined as raised lesions of a minimum diameter of 1 mm.

MDA-MB-231 cells = experiment: Combination with gluthathione biosynthesis blockers (BSO, sulfasalazine), MTT; conditions: for cell viability after pretreatment with BSO or sulfasalazine: 30 h pretreatment, then DET 12 μM or DETD-35 3 μM for 24 h; for combination effect with BSO: BSO at 0.5 μM, 3 μM, and above; for combination effect with sulfasalazine: sulfasalazine at 25 μM, 62 μM, and above
Method: Briefly, cells (5×10^3 cells/well) were seeded in 96-well plates and treated with BSO at concentrations 100 μM, 45 μM, 18 μM, 7.2 μM, 2.8 μM, 1.15 μM, 461 nM, 184 nM, 74 nM and 29 nM, and sulfasalazine at concentrations 62.75 μM, 25.10 μM, 10 μM, 4 μM, 1.6 μM, 642 nM, 257 nM, 102 nM, 41 nM and 16.4 nM for 30 h, and then 12 μM DET or 3 μM DETD-35 were added in the cultural medium to treat the cells for another 24 h. Cell proliferation was measured by MIT assay.

[12] = MDA-MB-231, 24 h, read-out: IC50 on cell viability, MDA-MB-231 (ER−, PR−, Her2−)
[13] = MDA-MB-231, Table 5, 24 h, read-out: IC50 viability MDA-MB-231 (Breast)
[14] = MCF7, 24 h, read-out: IC50 on cell viability, MCF-7 (ER+, Her2−)
[15] = MCF7, Table 5, 24 h, read-out: IC50 viability MCF-7 (Breast)
[16] = Homo sapiens, A-375, 24 h, 24 h, read-out: IC50 on cell viability, A375 (BRAF mutation)

In the case of `C=C(C)C(=O)O[C@H]1CC2=C[C@@H](C/C(C)=C/[C@H]3OC(=O)C(=C)[C@H]13)OC2=O` [DET, deoxyelephantopin, reference compound], the IC50 [1, 12] is reported as 14 µM, the IC50 [1, 13] is reported as 14 µM and the IC50 [2, 14] is reported as 5 µM. For the same compound, the IC50 [2, 15] was 5 µM, the IC50 [3] was > 7.5 µM and the IC50 [4] was > 10 µM. For the same compound, the IC50 ([4]; Homo sapiens, MeWo) was > 10 µM, the IC50 (A2058 (BRAF mutation); 24 h) was > 10 µM and the IC50 (A2058 (BRAF mutation); Homo sapiens, A2058, 24 h) was > 10 µM. The IC50 (A375 (BRAF mutation); 24 h, read-out: IC50 on cell viability, A375 (BRAF mutation)) was 5.9 µM, the IC50 (A375 (BRAF mutation); [16]) was ~6 µM and the IC50 [5] was > 10 µM. For the same compound, the IC50 [6] was 1 µM, the IC50 (U937 lymphoma line) was 0.48 µM and the IC50 [7] was 2.82 µM. The IC50 (PC3 (Prostate)) was 12.8 µM, the IC50 [8] was 1.47 µM and the IC50 [9] was 0.28 µM. The “inhibition of cell invasion” value (MDA-MB-231 cell invasion; higher concentrations (DET 4 μM, DETD-35 2.5 μM, PTX 4 μM)) was 76%, the “inhibition of cell invasion” value (MDA-MB-231 cell invasion; lower concentrations (DET 2.5 μM, DETD-35 1.25 μM, PTX 2.5 μM)) was 57% and the “reduction of tumor mass” value [10] was 32%. For the same compound, the “papillomas size in average” value [11] was 26.3 mm^3, the total papillomas number [11] was 11.7 and the “cell viability after pretreatment with BSO or sulfasalazine” value (MDA-MB-231 cells) was 1% or undetectable. The “combination effect with BSO” value (MDA-MB-231 cells) was “synergistic effects”, the “cell viability, compound alone” value (MDA-MB-231 cells; DET 12 μM, DETD-35 3 μM, 24 h) was “around 70%” and the “combination effect with sulfasalazine” value (MDA-MB-231 cells) was “synergistic effects”.
`C=C1C(=O)O[C@H]2CC3=C[C@@H](C/C(C)=C/[C@@H](OC(=O)Cc4cccc5ccccc45)[C@H]12)OC3=O` [DETD-35] was tested, and the “IC60 on MDA-MB-231 cells” value ([1]; 24 h) was 3.32 µM, the IC50 [1, 12] was 3.5 µM and the IC50 [1, 13] was 3.5 µM. For the same compound, the IC50 [2, 14] was 3.2 µM, the IC50 [2, 15] was 3.9 µM and the “IC50 on cell viability, M10 (normal)” value [3] was “no detected toxicity”. For the same compound, the IC50 [3] was > 7.5 µM, the IC50 ([4]; Homo sapiens, MeWo) was 6 µM and the IC50 (A2058 (BRAF mutation); Homo sapiens, A2058, 24 h) was 3.1 µM. The IC50 (A375 (BRAF mutation); 72 h, read-out: IC50 on A375 cells) was 0.8 µM, the IC50 (A375 (BRAF mutation); [16]) was 2.5 µM and the IC50 (A375 (BRAF mutation); Homo sapiens, A-375, 72 h, 72 h, read-out: IC50 on A375 cells) was 0.85 µM. The “IC50 on cell viability, Melanocyte (Normal cells)” value [5] was “no detected toxicity”, the IC50 [5] was > 10 µM and the IC50 [6] was 0.34 µM. For the same compound, the IC50 (U937 lymphoma line) was 0.18 µM, the IC50 [7] was 0.79 µM and the IC50 (PC3 (Prostate)) was 5.5 µM. For the same compound, the IC50 [8] was 0.65 µM, the IC50 [9] was 0.14 µM and the inhibition at 2.5 µM (MDA-MB-231 cell invasion; Homo sapiens, MDA-MB-231, higher concentrations (DET 4 μM, DETD-35 2.5 μM, PTX 4 μM)) was 80%. For the same compound, the inhibition at 1.25 µM (MDA-MB-231 cell invasion; Homo sapiens, MDA-MB-231, lower concentrations (DET 2.5 μM, DETD-35 1.25 μM, PTX 2.5 μM)) was 64.6%, the “reduction of tumor mass” value [10] was 46.9% and the “papillomas size in average” value [11] was 8.9 mm^3. For the same compound, the total papillomas number [11] was 4.8, the “cell viability after pretreatment with BSO or sulfasalazine” value (MDA-MB-231 cells) was 1% or undetectable and the “combination effect with BSO” value (MDA-MB-231 cells) was “synergistic effects”. For the same compound, the viability at 3 µM (MDA-MB-231 cells; Homo sapiens, MDA-MB-231, 24 h, read-out: cell viability, compound alone) was ~90% and the “combination effect with sulfasalazine” value (MDA-MB-231 cells) was “synergistic effects”.
